Assay results taken from the kinase profiling compilation of Christmann-Franck et al. (2016).

Assays:
Experiment in all cases: KINOMEscan competition binding
Conditions in all cases: compound 0.1 µM
RPS6KB1 (human) = RPS6KB1 (human) (UniProt P23443)
PRKAA2 (human) = PRKAA2 (human) (UniProt P54646)
EIF2AK2 (human) = EIF2AK2 (human) (UniProt P19525)
PRKCD (human) = PRKCD (human) (UniProt Q05655)
TNNI3K (human) = TNNI3K (human) (UniProt Q59H18)
RPS6KA6 KD1 (human) = RPS6KA6 KD1 (human) (UniProt Q9UK32)
GAK (human) = GAK (human) (UniProt O14976)
SIK1 (human) = SIK1 (human) (UniProt P57059)
MAP4K4 (human) = MAP4K4 (human) (UniProt O95819)
CDC42BPB (human) = CDC42BPB (human) (UniProt Q9Y5S2)
CDK9 (human) = CDK9 (human) (UniProt P50750)
Sequence of CDK9 (human) (P50750 whole entry, looked up): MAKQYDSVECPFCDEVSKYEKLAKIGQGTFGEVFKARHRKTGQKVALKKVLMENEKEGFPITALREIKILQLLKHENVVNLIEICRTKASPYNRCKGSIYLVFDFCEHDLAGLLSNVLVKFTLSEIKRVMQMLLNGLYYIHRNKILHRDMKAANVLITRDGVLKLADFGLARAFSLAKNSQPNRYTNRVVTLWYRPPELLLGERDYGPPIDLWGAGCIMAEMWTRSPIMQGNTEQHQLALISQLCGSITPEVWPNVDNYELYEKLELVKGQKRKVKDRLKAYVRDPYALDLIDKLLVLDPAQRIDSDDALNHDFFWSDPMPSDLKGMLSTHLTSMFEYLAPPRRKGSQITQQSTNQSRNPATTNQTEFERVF

SGK3 (human) = SGK3 (human) (UniProt Q96BR1)
Sequence of SGK3 (human) (Q96BR1 whole entry, looked up): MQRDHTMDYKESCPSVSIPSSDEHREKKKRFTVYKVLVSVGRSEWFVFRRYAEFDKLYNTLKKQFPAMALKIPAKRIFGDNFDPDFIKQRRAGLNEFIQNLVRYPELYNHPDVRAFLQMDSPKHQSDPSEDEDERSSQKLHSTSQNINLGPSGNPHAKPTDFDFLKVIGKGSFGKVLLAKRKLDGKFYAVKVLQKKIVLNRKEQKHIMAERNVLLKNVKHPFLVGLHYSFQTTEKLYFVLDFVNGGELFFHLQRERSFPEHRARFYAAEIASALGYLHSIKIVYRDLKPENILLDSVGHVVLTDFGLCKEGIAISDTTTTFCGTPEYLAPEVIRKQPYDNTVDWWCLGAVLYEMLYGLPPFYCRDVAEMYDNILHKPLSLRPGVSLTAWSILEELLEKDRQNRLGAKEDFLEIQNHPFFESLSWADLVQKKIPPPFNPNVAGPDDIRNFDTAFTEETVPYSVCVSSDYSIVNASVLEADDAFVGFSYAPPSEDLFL

CDKL5 (human) = CDKL5 (human) (UniProt O76039)
BLK (human) = BLK (human) (UniProt P51451)
CDK8 (human) = CDK8 (human) (UniProt P49336)
CAMK4 (human) = CAMK4 (human) (UniProt Q16566)
EPHB2 (human) = EPHB2 (human) (UniProt P29323)
Sequence of EPHB2 (human) (P29323 whole entry, looked up): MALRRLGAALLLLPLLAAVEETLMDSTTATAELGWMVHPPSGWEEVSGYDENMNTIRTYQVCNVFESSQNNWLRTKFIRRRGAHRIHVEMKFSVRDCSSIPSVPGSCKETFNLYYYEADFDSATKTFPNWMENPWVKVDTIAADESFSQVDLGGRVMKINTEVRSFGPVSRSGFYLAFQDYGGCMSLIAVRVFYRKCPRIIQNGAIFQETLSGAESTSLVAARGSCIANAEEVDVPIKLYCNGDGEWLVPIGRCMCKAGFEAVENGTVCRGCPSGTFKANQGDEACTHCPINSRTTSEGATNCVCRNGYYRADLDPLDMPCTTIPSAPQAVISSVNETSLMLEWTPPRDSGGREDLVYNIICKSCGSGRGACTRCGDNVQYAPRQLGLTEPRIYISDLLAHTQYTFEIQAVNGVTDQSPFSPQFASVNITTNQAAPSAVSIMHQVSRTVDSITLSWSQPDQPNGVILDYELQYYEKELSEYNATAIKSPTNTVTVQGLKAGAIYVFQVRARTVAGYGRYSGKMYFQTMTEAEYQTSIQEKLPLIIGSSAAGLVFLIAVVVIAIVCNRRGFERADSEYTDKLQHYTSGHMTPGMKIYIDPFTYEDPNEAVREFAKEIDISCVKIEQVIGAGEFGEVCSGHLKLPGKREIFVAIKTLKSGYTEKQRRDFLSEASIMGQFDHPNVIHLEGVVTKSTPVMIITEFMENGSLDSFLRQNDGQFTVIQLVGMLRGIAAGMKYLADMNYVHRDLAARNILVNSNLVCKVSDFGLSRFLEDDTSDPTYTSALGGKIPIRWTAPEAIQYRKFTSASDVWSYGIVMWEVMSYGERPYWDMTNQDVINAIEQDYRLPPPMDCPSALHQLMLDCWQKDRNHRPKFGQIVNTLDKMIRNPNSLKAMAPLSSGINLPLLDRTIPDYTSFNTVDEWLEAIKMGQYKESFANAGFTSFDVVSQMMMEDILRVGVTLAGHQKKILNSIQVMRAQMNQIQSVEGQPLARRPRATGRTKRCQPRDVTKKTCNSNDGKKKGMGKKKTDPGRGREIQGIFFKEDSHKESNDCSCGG

CDK13 (human) = CDK13 (human) (UniProt Q14004)
MYO3A (human) = MYO3A (human) (UniProt Q8NEV4)
NEK5 (human) = NEK5 (human) (UniProt Q6P3R8)
CSNK1G3 (human) = CSNK1G3 (human) (UniProt Q9Y6M4)
PDPK1 (human) = PDPK1 (human) (UniProt O15530)
SGK110 (human) = SGK110 (human) (UniProt P0C264)
TESK1 (human) = TESK1 (human) (UniProt Q15569)
NEK10 (human) = NEK10 (human) (UniProt Q6ZWH5)
TGFBR1 (human) = TGFBR1 (human) (UniProt P36897)
ERBB3 (human) = ERBB3 (human) (UniProt P21860)
Sequence of ERBB3 (human) (P21860 whole entry, looked up): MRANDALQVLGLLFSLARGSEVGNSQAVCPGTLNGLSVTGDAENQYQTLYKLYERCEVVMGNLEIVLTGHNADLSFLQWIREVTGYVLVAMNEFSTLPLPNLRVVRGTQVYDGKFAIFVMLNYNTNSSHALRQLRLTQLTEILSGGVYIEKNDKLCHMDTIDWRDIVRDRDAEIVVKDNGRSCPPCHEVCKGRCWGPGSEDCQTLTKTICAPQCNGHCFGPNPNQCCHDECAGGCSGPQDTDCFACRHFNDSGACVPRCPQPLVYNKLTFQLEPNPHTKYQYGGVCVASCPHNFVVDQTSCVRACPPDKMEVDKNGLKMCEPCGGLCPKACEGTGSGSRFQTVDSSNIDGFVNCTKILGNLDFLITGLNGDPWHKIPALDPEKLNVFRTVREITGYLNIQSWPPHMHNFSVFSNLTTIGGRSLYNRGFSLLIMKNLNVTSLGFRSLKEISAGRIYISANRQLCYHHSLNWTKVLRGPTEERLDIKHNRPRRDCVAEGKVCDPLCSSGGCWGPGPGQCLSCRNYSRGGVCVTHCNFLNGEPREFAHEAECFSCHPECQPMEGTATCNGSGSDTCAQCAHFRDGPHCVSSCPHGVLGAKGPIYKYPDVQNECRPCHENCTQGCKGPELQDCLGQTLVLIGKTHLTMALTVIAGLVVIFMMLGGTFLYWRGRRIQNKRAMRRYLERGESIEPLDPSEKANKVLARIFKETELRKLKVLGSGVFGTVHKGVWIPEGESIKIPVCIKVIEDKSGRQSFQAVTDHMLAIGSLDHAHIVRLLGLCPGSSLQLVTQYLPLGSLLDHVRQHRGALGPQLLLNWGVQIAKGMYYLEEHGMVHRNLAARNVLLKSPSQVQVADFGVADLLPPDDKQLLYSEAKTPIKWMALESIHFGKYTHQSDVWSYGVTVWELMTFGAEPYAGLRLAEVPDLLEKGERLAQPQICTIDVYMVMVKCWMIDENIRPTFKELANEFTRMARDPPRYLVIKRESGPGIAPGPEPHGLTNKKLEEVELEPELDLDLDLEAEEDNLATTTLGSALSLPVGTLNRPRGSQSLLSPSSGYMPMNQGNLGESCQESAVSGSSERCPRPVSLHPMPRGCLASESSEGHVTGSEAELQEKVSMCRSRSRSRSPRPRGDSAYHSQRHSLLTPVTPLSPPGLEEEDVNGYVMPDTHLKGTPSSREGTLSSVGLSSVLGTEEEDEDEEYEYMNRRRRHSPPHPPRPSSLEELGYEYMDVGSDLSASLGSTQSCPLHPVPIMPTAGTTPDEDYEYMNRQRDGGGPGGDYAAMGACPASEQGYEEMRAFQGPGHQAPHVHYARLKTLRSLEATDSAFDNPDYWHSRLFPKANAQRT

STK4 (human) = STK4 (human) (UniProt Q13043)
DCLK3 (human) = DCLK3 (human) (UniProt Q9C098)
PIM1 (human) = PIM1 (human) (UniProt P11309)
Sequence of PIM1 (human) (P11309 whole entry, looked up): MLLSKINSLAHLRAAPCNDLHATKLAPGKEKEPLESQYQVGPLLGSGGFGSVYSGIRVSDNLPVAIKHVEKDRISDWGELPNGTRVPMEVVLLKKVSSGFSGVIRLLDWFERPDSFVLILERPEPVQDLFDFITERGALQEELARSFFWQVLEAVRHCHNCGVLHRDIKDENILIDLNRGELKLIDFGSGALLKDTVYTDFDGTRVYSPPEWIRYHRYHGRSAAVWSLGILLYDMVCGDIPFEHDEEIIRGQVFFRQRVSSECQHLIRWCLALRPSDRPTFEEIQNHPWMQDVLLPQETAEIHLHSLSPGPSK

CDK18 (human) = CDK18 (human) (UniProt Q07002)
MARK2 (human) = MARK2 (human) (UniProt Q7KZI7)
[1] = system: RET (human), P07949 [V804M]
MAP2K5 (human) = MAP2K5 (human) (UniProt Q13163)
Sequence of MAP2K5 (human) (Q13163 whole entry, looked up): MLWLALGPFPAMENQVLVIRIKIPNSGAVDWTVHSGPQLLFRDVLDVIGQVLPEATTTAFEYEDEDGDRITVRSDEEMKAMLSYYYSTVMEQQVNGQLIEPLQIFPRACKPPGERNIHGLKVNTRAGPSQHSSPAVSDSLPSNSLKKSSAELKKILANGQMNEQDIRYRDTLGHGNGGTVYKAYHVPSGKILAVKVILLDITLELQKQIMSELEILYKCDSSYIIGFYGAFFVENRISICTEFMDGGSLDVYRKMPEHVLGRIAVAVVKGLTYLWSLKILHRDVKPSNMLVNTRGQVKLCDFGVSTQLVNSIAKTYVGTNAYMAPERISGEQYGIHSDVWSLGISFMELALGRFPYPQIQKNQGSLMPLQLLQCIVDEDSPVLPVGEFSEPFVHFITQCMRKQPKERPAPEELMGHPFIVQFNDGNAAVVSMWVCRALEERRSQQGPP

PAK7 (human) = PAK7 (human) (UniProt Q9P286)
Sequence of PAK7 (human) (Q9P286 whole entry, looked up): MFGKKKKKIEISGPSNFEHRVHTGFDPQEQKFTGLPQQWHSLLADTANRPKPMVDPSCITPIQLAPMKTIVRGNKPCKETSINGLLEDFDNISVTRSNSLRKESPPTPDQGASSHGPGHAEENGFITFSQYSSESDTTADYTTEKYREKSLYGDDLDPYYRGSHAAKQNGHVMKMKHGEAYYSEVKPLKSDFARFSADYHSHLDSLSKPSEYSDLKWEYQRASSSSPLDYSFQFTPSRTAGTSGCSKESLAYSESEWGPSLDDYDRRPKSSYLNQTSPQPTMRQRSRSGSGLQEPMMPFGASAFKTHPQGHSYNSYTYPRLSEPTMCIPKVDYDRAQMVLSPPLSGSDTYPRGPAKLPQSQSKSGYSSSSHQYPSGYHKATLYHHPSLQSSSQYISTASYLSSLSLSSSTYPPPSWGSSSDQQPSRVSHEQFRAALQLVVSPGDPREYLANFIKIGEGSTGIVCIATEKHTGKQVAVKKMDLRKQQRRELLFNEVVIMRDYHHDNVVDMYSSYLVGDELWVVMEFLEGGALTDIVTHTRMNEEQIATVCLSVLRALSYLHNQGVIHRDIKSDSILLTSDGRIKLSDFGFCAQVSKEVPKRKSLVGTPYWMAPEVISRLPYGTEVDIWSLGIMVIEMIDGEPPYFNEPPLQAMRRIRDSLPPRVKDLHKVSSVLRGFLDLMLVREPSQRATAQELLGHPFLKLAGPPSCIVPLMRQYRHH

[2] = system: PIK3CA (human), P42336 [E545K]
CDK2 (human) = CDK2 (human) (UniProt P24941)
[3] = system: RET (human), P07949 [V804L]
LYN (human) = LYN (human) (UniProt P07948)
MAP3K12 (human) = MAP3K12 (human) (UniProt Q12852)

**Q.** Which results are given for `CCc1ccc(C(=O)Nc2cc(CN3CCN(C)CC3)cc(C(F)(F)F)c2)cc1C#Cc1cnc2ccnn2c1`?
**A.** kinase still bound, per cent of control (RPS6KB1 (human)): 100%; kinase still bound, per cent of control (PRKAA2 (human)): 100%; kinase still bound, per cent of control (EIF2AK2 (human)): 83%; kinase still bound, per cent of control (PRKCD (human)): 100%; kinase still bound, per cent of control (TNNI3K (human)): 56%; kinase still bound, per cent of control (RPS6KA6 KD1 (human)): 100%; kinase still bound, per cent of control (GAK (human)): 95%; kinase still bound, per cent of control (SIK1 (human)): 100%; kinase still bound, per cent of control (MAP4K4 (human)): 100%; kinase still bound, per cent of control (CDC42BPB (human)): 78%; kinase still bound, per cent of control (CDK9 (human)): 98%; kinase still bound, per cent of control (SGK3 (human)): 100%; kinase still bound, per cent of control (CDKL5 (human)): 100%; kinase still bound, per cent of control (BLK (human)): 100%; kinase still bound, per cent of control (CDK8 (human)): 76%; kinase still bound, per cent of control (CAMK4 (human)): 100%; kinase still bound, per cent of control (EPHB2 (human)): 100%; kinase still bound, per cent of control (CDK13 (human)): 71%; kinase still bound, per cent of control (MYO3A (human)): 100%; kinase still bound, per cent of control (NEK5 (human)): 100%; kinase still bound, per cent of control (CSNK1G3 (human)): 78%; kinase still bound, per cent of control (PDPK1 (human)): 100%; kinase still bound, per cent of control (SGK110 (human)): 100%; kinase still bound, per cent of control (TESK1 (human)): 73%; kinase still bound, per cent of control (NEK10 (human)): 100%; kinase still bound, per cent of control (TGFBR1 (human)): 100%; kinase still bound, per cent of control (ERBB3 (human)): 86%; kinase still bound, per cent of control (STK4 (human)): 63%; kinase still bound, per cent of control (DCLK3 (human)): 100%; kinase still bound, per cent of control (PIM1 (human)): 80%; kinase still bound, per cent of control (CDK18 (human)): 100%; kinase still bound, per cent of control (MARK2 (human)): 100%; kinase still bound, per cent of control [1]: 80%; kinase still bound, per cent of control (MAP2K5 (human)): 100%; kinase still bound, per cent of control (PAK7 (human)): 85%; kinase still bound, per cent of control [2]: 100%; kinase still bound, per cent of control (CDK2 (human)): 84%; kinase still bound, per cent of control [3]: 86%; kinase still bound, per cent of control (LYN (human)): 35%; kinase still bound, per cent of control (MAP3K12 (human)): 81%
